Earlier results as cited in publication PMC8492600 (Cell Systems, 2021).

Columns and labels:
[1] = target: HLA-A*02:01 (Homo sapiens, UniProt P04439, D140Y/D185E/D98H/E176V/E277Q/G131W/G231S/I119V/I121R/I166T/I218V/L300P/L318F/N151K/N90K/P208A/P217A/Q86G/Q94H/R138H/R169H/T345S)
[2] = target: HLA-B*40:01 (Homo sapiens, UniProt P01889, A65T/A93T/A95T/D138N/D98Y/E176V/E69K/N87E/Q56L/Q94N/R180L/S121R/S35A/S48T/T167S/V36M/W171L/Y33H/Y91S)

Sequence	binding of the mutated epitope to HLA-A*02:01 [1]	binding of the mutated epitope to HLA-B*40:01 [2]
GFMWLSYFI	lose binding	
MKVTPSGTWL		lose binding
